ChEMBL document CHEMBL5356973 (J Med Chem, 2023)
Active and inactive are the calls of the source. No cut-off for these calls is given here.

Assays:
Mu-type opioid receptor [1] = biological target: T1, Mu-type opioid receptor (Homo sapiens, UniProt P35372); assay: Agonist activity at MOR (unknown origin) transfected in CHO cells co-expressing Galphaq15 assessed as increase in calcium mobilization by measuring maximal efficacy by Fluo-4AM dye based assay relative to control; type: functional, cell-based; conditions: filed as agonist
T1 sequence (P35372 whole entry): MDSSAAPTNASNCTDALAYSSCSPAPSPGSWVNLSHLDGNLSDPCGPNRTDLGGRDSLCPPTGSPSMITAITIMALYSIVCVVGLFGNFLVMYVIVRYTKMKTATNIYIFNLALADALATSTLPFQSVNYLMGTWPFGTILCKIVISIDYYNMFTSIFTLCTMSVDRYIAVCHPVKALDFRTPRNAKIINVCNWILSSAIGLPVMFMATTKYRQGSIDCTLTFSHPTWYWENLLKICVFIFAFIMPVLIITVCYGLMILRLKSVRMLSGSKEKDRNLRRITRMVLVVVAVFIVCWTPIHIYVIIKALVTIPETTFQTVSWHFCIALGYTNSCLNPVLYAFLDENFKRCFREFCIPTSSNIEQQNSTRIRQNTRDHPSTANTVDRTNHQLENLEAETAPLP

[2] = Induction of antinociceptive tolerance in Kunming mouse assessed as decrease in tail flick latency at 0.88 nmol/kg, sc administered once daily for 8 days and measured once daily by tail-flick test; type: toxicity, organism-based; conditions: in vivo, 192 h, time 8 day
Mus musculus [3] = assay: Antinociceptive activity in Kunming mouse assessed as changes in tail flick latency at 0.009 nmol/kg, sc pretreated with 1-adamantanecarbonyl-RF-NH2 at 10 nmol, icv for 5 mins followed by compound addition and measured for 360 mins by tail-flick test; type: functional, organism-based
[4] = Toxicity in sc dosed Kunming mouse assessed as effect on naloxone-induced jumping response at 88 nmol/kg, sc administered every 8 hrs for 3 days followed by naloxone administration at 2 hrs post last dose and measured immediately by Nal-precipitated withdraw test; type: organism-based; conditions: in vivo, 74 h
Mus musculus [5] = assay: Antinociceptive activity in Kunming mouse assessed as changes in tail flick latency by measuring maximal possible effect at 0.88 nmol/kg, sc measured after 240 mins by tail-flick test; type: functional; conditions: 4 h
[6] = biological target: T2, Kappa-type opioid receptor (Homo sapiens, UniProt P41145); assay: Agonist activity at KOR (unknown origin) transfected in CHO cells co-expressing Galphaq15 assessed as increase in calcium mobilization by measuring maximal efficacy by Fluo-4AM dye based assay relative to control; type: functional, cell-based; conditions: filed as agonist
T2 sequence (P41145 whole entry): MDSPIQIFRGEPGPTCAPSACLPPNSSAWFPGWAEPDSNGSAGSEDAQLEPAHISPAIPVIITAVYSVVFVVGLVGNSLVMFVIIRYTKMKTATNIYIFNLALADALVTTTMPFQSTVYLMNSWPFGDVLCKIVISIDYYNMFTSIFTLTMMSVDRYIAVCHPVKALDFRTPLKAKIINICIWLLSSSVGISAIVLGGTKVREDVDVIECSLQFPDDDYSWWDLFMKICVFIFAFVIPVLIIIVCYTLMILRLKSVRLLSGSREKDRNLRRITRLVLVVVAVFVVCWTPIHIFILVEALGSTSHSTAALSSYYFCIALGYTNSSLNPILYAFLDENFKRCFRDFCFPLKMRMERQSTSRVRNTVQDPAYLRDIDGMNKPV

Mus musculus [7] = assay: Antinociceptive activity in Kunming mouse assessed as changes in tail flick latency by measuring time duration of action at 1 to 10 pmol, icv measured for 360 mins by tail-flick test; type: functional; conditions: dose 1-10 pmol, 6 h
Mus musculus [8] = assay: Antinociceptive activity in Kunming mouse assessed as changes in tail flick latency by measuring maximal possible effect at 0.88 nmol/kg, sc measured after 20 mins by tail-flick test; type: functional
[9] = Metabolic stability in mouse plasma assessed as degradation half life at 10 mM measured upto 480 mins by RP-HPLC analysis; type: ADME, cell-free
Mus musculus [10] = assay: Antinociceptive activity in icv dosed Kunming mouse assessed as changes in tail flick latency measured for 360 mins by tail-flick test; type: functional
Mus musculus [11] = assay: Antinociceptive activity in sc dosed Kunming mouse assessed as changes in tail flick latency measured after 10 to 360 mins by tail-flick test; type: functional; conditions: time 10-360 min
Mus musculus [12] = assay: Antinociceptive activity in Kunming mouse assessed as changes in tail flick latency by measuring maximal possible effect at 0.88 nmol/kg, sc measured after 30 mins by tail-flick test; type: functional; conditions: 0.5 h
Mu-type opioid receptor [13] = biological target: T1, Mu-type opioid receptor; assay: Agonist activity at MOR (unknown origin) transfected in CHO cells co-expressing Galphaq15 assessed as increase in calcium mobilization by Fluo-4AM dye based assay; type: functional, cell-based
[14] = AUC in Kunming mouse brain at 1 mg/kg, iv measured upto 240 mins by LC-MS/MS analysis; type: ADME, organism-based; set-up: time < 240 min, dose 1 mg/kg, route iv; conditions: in vivo, 4 h
[15] = AUC in Kunming mouse plasma at 1 mg/kg, iv measured upto 240 mins by LC-MS/MS analysis; type: ADME, organism-based; set-up: time < 240 min, dose 1 mg/kg, route iv
[16] = biological target: T3, Delta-type opioid receptor (Homo sapiens, UniProt P41143); assay: Agonist activity at DOR (unknown origin) transfected in CHO cells co-expressing Galphaq15 assessed as increase in calcium mobilization by measuring maximal efficacy by Fluo-4AM dye based assay relative to control; type: functional, cell-based; conditions: filed as agonist
T3 sequence (P41143 whole entry): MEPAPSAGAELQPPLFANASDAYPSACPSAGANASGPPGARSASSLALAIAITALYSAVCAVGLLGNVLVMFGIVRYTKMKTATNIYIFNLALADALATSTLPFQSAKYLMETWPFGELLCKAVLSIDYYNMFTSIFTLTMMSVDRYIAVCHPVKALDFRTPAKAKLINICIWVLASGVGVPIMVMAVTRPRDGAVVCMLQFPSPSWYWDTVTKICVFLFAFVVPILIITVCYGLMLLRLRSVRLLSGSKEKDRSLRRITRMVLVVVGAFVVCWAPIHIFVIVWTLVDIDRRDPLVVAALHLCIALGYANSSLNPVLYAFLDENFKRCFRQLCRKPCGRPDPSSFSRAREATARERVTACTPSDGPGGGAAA

[17] = Agonist activity at NPFF1R (unknown origin) transfected in CHO cells co-expressing Galphaq15 assessed as increase in calcium mobilization by measuring maximal efficacy by Fluo-4AM dye based assay relative to control; type: functional, cell-based; conditions: Homo sapiens, filed as agonist
Mus musculus [18] = assay: Antinociceptive activity in po dosed Kunming mouse assessed as changes in tail flick latency measured for 360 mins by tail-flick test; type: functional
[19] = Toxicity in Kunming mouse assessed as effect on locomotor activity at 88 nmol/kg, sc measured after 20 to 180 mins by open field test; type: organism-based; conditions: in vivo, time 20-180 min
[20] = Toxicity in sc dosed 16 hrs fasted Kunming mouse assessed as constipation by measuring inhibition of gastrointestinal transit administered for 15 mins followed by charcoal meal and measured after 30 mins; type: organism-based; conditions: in vivo, 0.75 h, time 45 min
[21] = Toxicity in Kunming mouse assessed as reduction in respiration frequency at 88 nmol/kg, sc measured upto 100 mins by whole-body plethysmography; type: organism-based; conditions: in vivo, 1.667 h
Mus musculus [22] = assay: Antinociceptive activity in Kunming mouse assessed as changes in tail flick latency by measuring maximal possible effect at 0.88 nmol/kg, sc measured after 60 mins by tail-flick test; type: functional; conditions: 1 h
[23] = biological target: T4, Neuropeptide FF receptor 2 (Homo sapiens, UniProt Q9Y5X5); assay: Agonist activity at NPFF2R (unknown origin) transfected in HEK293 cells co-expressing Galphaq15 assessed as increase in calcium mobilization by measuring maximal efficacy by Fluo-4AM dye based assay relative to control; type: functional, cell-based; conditions: filed as agonist
T4 sequence (Q9Y5X5 whole entry): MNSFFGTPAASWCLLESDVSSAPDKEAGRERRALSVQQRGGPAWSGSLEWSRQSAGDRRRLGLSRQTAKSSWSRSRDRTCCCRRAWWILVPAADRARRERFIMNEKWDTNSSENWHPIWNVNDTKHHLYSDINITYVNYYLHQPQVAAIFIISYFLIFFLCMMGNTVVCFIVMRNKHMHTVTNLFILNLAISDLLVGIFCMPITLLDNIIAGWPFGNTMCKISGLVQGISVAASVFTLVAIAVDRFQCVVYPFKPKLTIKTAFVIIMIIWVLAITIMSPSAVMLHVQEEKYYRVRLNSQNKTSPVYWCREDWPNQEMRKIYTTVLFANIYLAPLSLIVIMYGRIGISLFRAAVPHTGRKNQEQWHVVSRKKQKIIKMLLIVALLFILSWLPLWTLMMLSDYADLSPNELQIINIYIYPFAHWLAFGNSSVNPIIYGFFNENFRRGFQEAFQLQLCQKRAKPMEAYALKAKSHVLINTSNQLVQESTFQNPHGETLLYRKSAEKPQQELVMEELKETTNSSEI

[24] = biological target: T3, Delta-type opioid receptor; assay: Agonist activity at DOR (unknown origin) transfected in CHO cells co-expressing Galphaq15 assessed as increase in calcium mobilization by Fluo-4AM dye based assay; type: functional, cell-based
[25] = Toxicity in Kunming mouse assessed as effect on motor coordination at 88 nmol/kg, sc measured after 15 to 45 mins by rotarod test; type: organism-based; conditions: in vivo, time 15-45 min
Mus musculus [26] = assay: Antinociceptive activity in Kunming mouse assessed as changes in tail flick latency at 0.88 nmol/kg, sc pretreated with naltrindole at 10 nmol, icv for 10 mins followed by compound addition and measured for 360 mins by tail-flick test; type: functional, organism-based
[27] = Toxicity in Kunming mouse assessed as addiction behavior at 88 nmol/kg, sc administered for 3 days starting from day 2 and measured on day 5 by conditioned place preference test; type: organism-based; conditions: in vivo, 96 h, time 4 day
[28] = biological target: T4, Neuropeptide FF receptor 2; assay: Agonist activity at NPFF2R (unknown origin) transfected in HEK293 cells co-expressing Galphaq15 assessed as increase in calcium mobilization by Fluo-4AM dye based assay; type: functional, cell-based
[29] = Ratio of AUC in brain to plasma in Kunming mouse at 1 mg/kg, iv measured upto 240 mins by LC-MS/MS analysis; type: ADME, organism-based; conditions: read-out: BPR
Mus musculus [30] = assay: Antinociceptive activity in Kunming mouse assessed as changes in tail flick latency at 0.88 nmol/kg, sc pretreated with naloxone methiodide at 5 nmol, icv for 10 mins followed by compound addition and measured for 360 mins by tail-flick test; type: functional, organism-based
[31] = biological target: T2, Kappa-type opioid receptor; assay: Agonist activity at KOR (unknown origin) transfected in CHO cells co-expressing Galphaq15 assessed as increase in calcium mobilization by Fluo-4AM dye based assay; type: functional, cell-based
Mus musculus [32] = assay: Antinociceptive activity in Kunming mouse assessed as changes in tail flick latency at 0.88 nmol/kg, sc pretreated with beta-funaltrexamine at 10 nmol, icv for 4 hrs followed by compound addition and measured for 360 mins by tail-flick test; type: functional, organism-based
Mus musculus [33] = assay: Antinociceptive activity in Kunming mouse assessed as changes in tail flick latency by measuring time duration of antinociceptive effect at 0.88 nmol/kg, sc by tail-flick test; type: functional
Mus musculus [34] = assay: Antinociceptive activity in Kunming mouse assessed as changes in tail flick latency by measuring maximal possible effect at 0.88 nmol/kg, sc measured after 120 mins by tail-flick test; type: functional; conditions: 2 h
[35] = Metabolic stability in mouse brain homogenate assessed as degradation half life at 10 mM measured upto 480 mins by RP-HPLC analysis; type: ADME, tissue-based
Mus musculus [36] = assay: Antinociceptive activity in Kunming mouse assessed as changes in tail flick latency at 0.88 nmol/kg, sc pretreated with nor-binaltorphimine at 10 nmol, icv for 30 mins followed by compound addition and measured for 360 mins by tail-flick test; type: functional, organism-based
Mus musculus [37] = assay: Antinociceptive activity in Kunming mouse assessed as changes in tail flick latency by measuring time duration of action at 0.88 to 8.82 nmol/kg, po measured for 360 mins by tail-flick test; type: functional; conditions: dose 0.88-8.82 nmol/kg, 6 h

Which results are given for `CN1C(=O)CNC(=O)[C@H](N[C@@H](Cc2ccc(O)cc2)C(=O)O)CCCC/C=C\C[C@@H](C(=O)N2CCC[C@H]2C(=O)N[C@@H](CCC(N)=O)C(=O)N[C@@H](CCCNC(=N)N)C(=O)N[C@@H](Cc2ccccc2)C(N)=O)NC(=O)[C@@H]1Cc1ccccc1`?
Emax (Mu-type opioid receptor [1]): 98.1%; Activity [2]: Non-Toxic; Activity (Mus musculus [3]): Active; Activity [4]: Non-Toxic; MPE (Mus musculus [5]): 46.2%; Emax [6]: 99.2%; Time (Mus musculus [7]): <=360 min; MPE (Mus musculus [8]): 89.8%; half-life at 10000 µM [9]: 0.447 h; Activity (Mus musculus [10]): Dose-Dependent Effect; ED50 (Mus musculus [10]; 6 h): 1.38 pmol; Activity (Mus musculus [11]): Dose-Dependent Effect; ED50 (Mus musculus [11]): 1e-05 µmol/kg; MPE (Mus musculus [12]): 89.5%; EC50 (Mu-type opioid receptor [13]): 2.8 nM; AUC [14]: 183.2 µg·min/g; AUC at 4 h [15]: 2270 ng·h/mL; Emax [16]: 81.9%; Emax [17]: 93.7%; Activity (Mus musculus [18]): Dose-Dependent Effect; ED50 (Mus musculus [18]; 6 h): 0.00135 µmol/kg; Activity [19]: Non-Toxic; ED50 [20]: 84 nmol/kg; Activity [21]: Non-Toxic; MPE (Mus musculus [22]): 85.4%; Emax [23]: 89.2%; EC50 [24]: 56.2 nM; Activity [25]: Non-Toxic; Activity (Mus musculus [26]): Active; Activity [27]: Non-Toxic; EC50 [28]: 144 nM; Kp at 4 h [29]: 1.35; Activity (Mus musculus [30]): inactive; EC50 [31]: 169 nM; Activity (Mus musculus [32]): inactive; Time (Mus musculus [33]): 360 min; MPE (Mus musculus [34]): 58.9%; half-life at 10000 µM [35]: 1.78 h; Activity (Mus musculus [36]): inactive; Time (Mus musculus [37]): <=360 min
